Values of other authors as cited in patent publication US6713046B1, “Magnetic resonance imaging agents for the delivery of therapeutic agents” (Research Corporation Technologies, priority 1997, dated 2004).

Settings: thermodynamic stability of the Gd(III) chelate complex; background statement

- stability constant (K), formation constant, logK: 28.5
SMILES: O=C([O-])CN1CCN(CC(=O)[O-])CCN(CC(=O)O)CCN(CC(=O)[O-])CC1.[Gd+3] [Gd-DOTA]
